In patent US20080146617A1, “Methods of treating inflammatory diseases” (Roche Palo Alto LLC, priority 2006, published 2008):

How the values were obtained:
AURKA = target: T1, AURKA (Homo sapiens, UniProt O14965); assay: KinomeScan kinase profiling; type: binding
T1 construct: purchased Ambit Biosciences (San Diego, Calif.)
From the text: (§2) The selectivity of a given CK1δ, CK1ε or CK1δ-CK1ε inhibitor compound can be determined by testing the compound against a panel of known kinases. An example of such a kinase profiling technology is the “KinomeScan” from Ambit Biosciences in which compounds can be screened for their modulatory activities against more than 200 known kinases.

CDK5 = target: T2, CDK5 (Homo sapiens, UniProt Q00535); assay: KinomeScan kinase profiling; type: binding
T2 construct: purchased Ambit Biosciences (San Diego, Calif.)
From the text: as §2

p38-alpha = target: T3, p38-alpha (Homo sapiens, UniProt Q16539); assay: KinomeScan kinase profiling; type: binding
T3 construct: purchased Ambit Biosciences (San Diego, Calif.)

PTK6 = target: T4, PTK6 (Homo sapiens, UniProt Q13882); assay: KinomeScan kinase profiling; type: binding
T4 construct: purchased Ambit Biosciences

[1] = tested on: IL-8 production in neutrophils; assay: Neutrophil assay: IL-8 production after stimulation by inflammatory agents; type: cell-based; conditions: human neutrophils stimulated by inflammatory agents, FIG. 2
From the text: (§1) Selective CK1δ, CK1ε or CK1δ-CK1ε inhibitors can be tested for their antiinflammatory effects using a variety of in vitro and in vivo tests that are well known in the art. One such in vitro test involves the application of the inhibitor to human neutrophils to observe whether the induction of inflammatory cytokines, such as IL-8, by tumor necrosis factor (TNF) or lipopolysaccharide (LPS) can be reduced. This test is further described in Example 2. An example of an in vivo test, as described in Example 3, is the air pouch model of inflammatory synovitis in mice in which the inhibitors are tested for their blockade of neutrophil influx as well as of inflammatory cytokine accumulation.
The Histopaque 1077 and 1119 gradient density centrifugation method (Sigma-Aldrich) was used to isolate granulocytes from human blood. The granulocytes were recovered from the 1077/1119 interphase, washed twice with PBS. The red blood cells were lysed with PureGene red cell lysis buffer (Gentra Biosystems). The cells were washed again and resuspended in growth media (RPMI, 10% FBS, β-mercaptoethanol, Pen/Strep/glutamine and sodium pyruvate) at a density of 1 to 5 million per ml. […] The supernatant was analyzed for cytokine production (Luminex human 22-plex assay) and the cells were lysed for RNA production and analysis.

inflammatory synovitis = assay: Air pouch synovitis model; type: in vivo, Balbc/J mice; conditions: 1 μg LPS, FIG. 3
From the text: as §1
Adult Balbc/J mice were purchased from Charles River Labs and housed and utilized according IACUC protocols and standards. The airpouch was inflated on the dorsal surface of each mouse with 3 ml of air, after light anesthesia with CO2/O2 mix. Three days later each pouch was re-inflated with 3 mls of air. After an additional three days, the pouches were injected with vehicle or compound (normally in 0.1% DMSO in PBS) in 1 ml per pouch. After 20 to 30 minutes, each pouch received 1 μg of LPS or control (PBS). The animals were euthanized four to six hours later. The pouches were flushed with 2 ml of PBS, the cells were then collected, counted and normalized for volume recovered. The fluid recovered was analyzed for cytokine production (Luminex Mouse 21-plex assay). The cells were lysed for RNA or protein analysis.

PKAC-alpha = target: T5, PKAC-alpha (Homo sapiens, UniProt P17612); assay: KinomeScan kinase profiling; type: binding
T5 construct: purchased Ambit Biosciences (San Diego, Calif.)
From the text: as §2

FGR = target: T6, FGR (Homo sapiens, UniProt P09769); assay: KinomeScan kinase profiling; type: binding
T6 construct: purchased Ambit Biosciences (San Diego, Calif.)
From the text: as §2

JNK2 = target: T7, JNK2 (Homo sapiens, UniProt P45984); assay: KinomeScan kinase profiling; type: binding
T7 construct: purchased Ambit Biosciences (San Diego, Calif.)
From the text: as §2

BRAF(V600E) = target: T8, BRAF(V600E) (Homo sapiens, UniProt P15056, V600E); assay: KinomeScan kinase profiling; type: binding
T8 construct: purchased Ambit Biosciences (San Diego, Calif.)
From the text: as §2

BRAF = target: T9, BRAF (Homo sapiens, UniProt P15056); assay: KinomeScan kinase profiling; type: binding
T9 construct: purchased Ambit Biosciences (San Diego, Calif.)
T9 sequence (P15056 whole entry): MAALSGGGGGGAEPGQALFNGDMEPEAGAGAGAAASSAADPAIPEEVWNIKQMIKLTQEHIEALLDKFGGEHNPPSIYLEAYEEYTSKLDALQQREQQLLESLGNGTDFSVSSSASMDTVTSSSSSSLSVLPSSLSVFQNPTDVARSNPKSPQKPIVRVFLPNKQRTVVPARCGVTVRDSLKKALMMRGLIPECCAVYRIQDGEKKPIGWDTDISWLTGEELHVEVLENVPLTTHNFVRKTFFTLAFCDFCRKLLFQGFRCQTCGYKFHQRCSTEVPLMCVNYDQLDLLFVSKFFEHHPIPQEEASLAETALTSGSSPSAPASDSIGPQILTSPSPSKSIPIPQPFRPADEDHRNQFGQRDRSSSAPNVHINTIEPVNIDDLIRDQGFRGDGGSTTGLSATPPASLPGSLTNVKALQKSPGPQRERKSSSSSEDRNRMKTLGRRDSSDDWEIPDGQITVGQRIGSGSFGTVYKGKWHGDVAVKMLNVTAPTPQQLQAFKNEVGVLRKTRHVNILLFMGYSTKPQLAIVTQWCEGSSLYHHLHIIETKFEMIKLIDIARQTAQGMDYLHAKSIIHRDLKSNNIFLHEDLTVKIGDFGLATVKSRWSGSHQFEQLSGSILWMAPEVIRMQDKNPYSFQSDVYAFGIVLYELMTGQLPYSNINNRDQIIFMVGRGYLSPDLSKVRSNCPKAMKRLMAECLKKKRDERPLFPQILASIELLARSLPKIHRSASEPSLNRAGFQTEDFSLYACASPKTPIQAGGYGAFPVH
From the text: as §2

T2 sequence (Q00535 whole entry): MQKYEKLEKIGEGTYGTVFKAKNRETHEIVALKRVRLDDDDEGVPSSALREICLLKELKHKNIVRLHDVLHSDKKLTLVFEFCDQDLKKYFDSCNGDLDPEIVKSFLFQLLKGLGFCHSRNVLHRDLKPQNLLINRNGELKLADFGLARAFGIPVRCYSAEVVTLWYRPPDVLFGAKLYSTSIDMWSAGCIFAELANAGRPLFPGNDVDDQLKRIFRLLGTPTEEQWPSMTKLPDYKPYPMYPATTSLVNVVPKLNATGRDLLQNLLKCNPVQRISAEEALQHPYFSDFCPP
T4 sequence (Q13882 whole entry): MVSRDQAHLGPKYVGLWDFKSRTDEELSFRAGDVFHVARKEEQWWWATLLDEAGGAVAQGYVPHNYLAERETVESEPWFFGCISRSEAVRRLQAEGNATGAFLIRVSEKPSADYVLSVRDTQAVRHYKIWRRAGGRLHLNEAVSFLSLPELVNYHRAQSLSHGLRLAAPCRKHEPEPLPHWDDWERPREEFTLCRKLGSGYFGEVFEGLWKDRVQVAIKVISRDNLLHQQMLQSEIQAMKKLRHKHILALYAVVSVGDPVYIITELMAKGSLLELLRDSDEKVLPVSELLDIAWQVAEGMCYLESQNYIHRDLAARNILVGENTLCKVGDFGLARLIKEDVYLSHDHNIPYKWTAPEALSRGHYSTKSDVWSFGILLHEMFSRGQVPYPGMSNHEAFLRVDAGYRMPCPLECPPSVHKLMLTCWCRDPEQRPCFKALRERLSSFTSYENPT
T1 sequence (O14965 whole entry): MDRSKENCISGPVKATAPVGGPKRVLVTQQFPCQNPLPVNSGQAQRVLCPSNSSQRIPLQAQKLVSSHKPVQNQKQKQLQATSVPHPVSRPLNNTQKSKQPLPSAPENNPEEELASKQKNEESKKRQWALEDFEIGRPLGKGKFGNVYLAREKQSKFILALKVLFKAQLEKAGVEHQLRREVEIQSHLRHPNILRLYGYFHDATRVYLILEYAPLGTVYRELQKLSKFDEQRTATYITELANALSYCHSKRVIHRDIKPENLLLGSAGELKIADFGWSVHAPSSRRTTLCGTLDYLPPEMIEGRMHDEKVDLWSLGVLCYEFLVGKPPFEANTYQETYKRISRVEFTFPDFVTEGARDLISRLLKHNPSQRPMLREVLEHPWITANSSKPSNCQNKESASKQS
T6 sequence (P09769 whole entry): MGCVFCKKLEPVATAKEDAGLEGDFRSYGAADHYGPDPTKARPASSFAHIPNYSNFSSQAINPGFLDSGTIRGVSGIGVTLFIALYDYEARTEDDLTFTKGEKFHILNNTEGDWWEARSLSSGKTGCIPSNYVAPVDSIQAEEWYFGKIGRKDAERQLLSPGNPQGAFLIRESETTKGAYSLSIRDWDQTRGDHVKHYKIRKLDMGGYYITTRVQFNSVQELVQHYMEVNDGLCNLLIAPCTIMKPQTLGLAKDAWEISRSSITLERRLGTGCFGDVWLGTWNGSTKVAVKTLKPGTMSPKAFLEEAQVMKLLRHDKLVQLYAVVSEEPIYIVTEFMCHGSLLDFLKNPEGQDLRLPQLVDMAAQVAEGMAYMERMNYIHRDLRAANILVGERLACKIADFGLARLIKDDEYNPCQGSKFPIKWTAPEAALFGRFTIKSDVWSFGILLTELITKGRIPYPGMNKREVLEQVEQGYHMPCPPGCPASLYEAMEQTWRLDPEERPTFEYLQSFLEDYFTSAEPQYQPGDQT
T3 sequence (Q16539 whole entry): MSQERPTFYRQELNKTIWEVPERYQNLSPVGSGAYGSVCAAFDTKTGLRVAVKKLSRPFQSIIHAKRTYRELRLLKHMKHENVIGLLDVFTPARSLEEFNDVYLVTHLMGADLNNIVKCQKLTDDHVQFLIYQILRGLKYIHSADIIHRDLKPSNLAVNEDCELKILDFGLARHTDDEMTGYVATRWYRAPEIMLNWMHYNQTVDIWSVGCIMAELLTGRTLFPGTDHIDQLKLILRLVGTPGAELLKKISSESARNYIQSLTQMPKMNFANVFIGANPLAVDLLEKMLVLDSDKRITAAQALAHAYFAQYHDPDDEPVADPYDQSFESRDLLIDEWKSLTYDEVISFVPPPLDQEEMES
T7 sequence (P45984 whole entry): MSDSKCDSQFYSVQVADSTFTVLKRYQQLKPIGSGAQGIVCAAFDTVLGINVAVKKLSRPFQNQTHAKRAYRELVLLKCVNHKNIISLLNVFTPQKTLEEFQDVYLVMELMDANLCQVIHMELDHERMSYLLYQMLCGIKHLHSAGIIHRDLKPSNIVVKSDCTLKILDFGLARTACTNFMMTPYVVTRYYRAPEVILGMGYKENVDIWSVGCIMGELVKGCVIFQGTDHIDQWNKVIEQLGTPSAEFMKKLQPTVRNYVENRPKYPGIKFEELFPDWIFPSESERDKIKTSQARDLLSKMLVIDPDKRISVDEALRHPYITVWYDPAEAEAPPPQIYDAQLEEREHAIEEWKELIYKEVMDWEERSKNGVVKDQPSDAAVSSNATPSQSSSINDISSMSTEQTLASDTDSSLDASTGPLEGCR
T8 sequence (P15056 whole entry V600E): as the sequence (P15056 whole entry) above, with V600E counted along it

Structure (SMILES)	inhibition at 10 µM (AURKA) [%]	inhibition at 10 µM (CDK5) [%]	inhibition at 10 µM (p38-alpha) [%]	inhibition at 10 µM (PTK6) [%]	inhibition of IL-8 production in neutrophils [1]	production of IL-6 (inflammatory synovitis; mouse air pouch fluid)	production of MCP1 (inflammatory synovitis; mouse air pouch fluid)	neutrophil influx (inflammatory synovitis; mouse air pouch, compound injected into pouch)	inhibition at 10 µM (PKAC-alpha) [%]	inhibition at 10 µM (FGR) [%]	inhibition at 10 µM (JNK2) [%]	inhibition at 10 µM (BRAF(V600E)) [%]	inhibition at 10 µM (BRAF) [%]
NC(=O)c1ccc(-c2nc(-c3ccc4c(c3)OCO4)c(-c3ccccn3)[nH]2)cc1 [SB431542, 4-(4-benzo-[1,3]dioxol-5-yl-5-pyridin-2-yl-1H-imidazol-2-yl)benzamide]	< 50	< 50	< 50	< 50	dose-dependent inhibition	inhibited	inhibited	inhibited	< 50	< 50	< 50	–	–
NC(=O)c1ccc(-c2nc(-c3ccc4c(c3)OCCO4)c(-c3ccccn3)[nH]2)cc1 [D4476, 4-[4-(2,3-Dihydro-benzo[1,4]dioxin-6-yl)-5-pyridin-2-yl-1H-imidazol-2-yl]benzamide]	< 50	< 50	< 50	< 50	–	–	–	–	< 50	< 50	< 50	< 50	< 50
